Primed or numbered codes have the meaning given here. Where no end group is shown, it is not given here. The star is where a group is joined. BODIPY(FL) = CC1=CC(C)=[N+]2C1=Cc1ccc(CCC(=O)*)n1[B-]2(F)F; Dabcyl′ = quencher
What was measured:
[1] = tested on: co-cultures of E0771 cells and IL-2-activated CD8+ T cells; experiment: Image-based phenotypic drug screen (H5 fluorescence); settings: for fluorescence signals compared to IL-2 only controls: combination with IL-2
Description: E0771 and CD8+ T cells were co-cultured for 2 days and then incubated with IL-2 (100 U mL^−1) and each individual drug at their respective working concentrations for 3 h (Table S5).
Wells received 100 U mL^−1 IL-2 (low IL-2) for T cell viability. […] Data as means ± SEM (n = 8). […] Data as means ± SD (n = 5). P-value from two-tailed t-tests.
E0771 (750 cells/well) and freshly isolated murine CD8+ T cells (6000 cells/well) were plated in 384-well plates as described above. After 2 days of co-culture at 37 °C, cells were further incubated with IL-2 alone (100 or 250 U mL^−1) or IL-2 (100 U mL^−1) in combination with drugs (Table S5) for 3 h. […] Briefly, nuclei were used as seeds to create a pseudo-cell area and GzmB-positive puncta were detected using a top-hat filter (pixel size: 10, circle shape) followed by an average filter (3 × 3 pixels).

human GzmB (hGzmB) [2] = target: T1, human GzmB (hGzmB) (Homo sapiens, UniProt P10144); experiment: Fluorescence assay with recombinant hGzmB (fluorogenic response, time course); type: biochemical
T1 construct: For active GzmB vs pro-GzmB, p < 0.0001
T1 sequence (P10144 21-247): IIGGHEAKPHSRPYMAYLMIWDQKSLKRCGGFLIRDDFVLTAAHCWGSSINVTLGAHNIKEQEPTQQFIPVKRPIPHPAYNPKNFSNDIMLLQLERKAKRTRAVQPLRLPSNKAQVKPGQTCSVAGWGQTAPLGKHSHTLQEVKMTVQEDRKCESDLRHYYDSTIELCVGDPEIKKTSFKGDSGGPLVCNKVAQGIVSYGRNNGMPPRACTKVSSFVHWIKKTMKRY
Description: Fluorescence-based assays with different enzymes were performed in the appropriate buffers. Probes (25 μM) were added to enzymes (20 nM or at the indicated concentrations) in 384-well plates and their fluorescence emission was recorded at 450 nm (for AMC) or 510 nm (for BODIPY) at 37 °C using a Synergy H1 Hybrid spectrophotometer. In experiments with Ac-IEPD-CHO (50 μM), the inhibitor was preincubated for 1 h with GzmB before the addition of any probe.

human GzmB (hGzmB) [3] = target: T1, human GzmB (hGzmB); experiment: HPLC conversion of fluorogenic peptides by hGzmB; type: biochemical; settings: probe 25 μM (Ac-IEPD-AMC 50 μM), TRIS buffer, 37 °C, HPLC-UV
Description: Supplementary Figure 1. Reactivity of fluorogenic substrates against human GzmB and limits of detection. a) Reaction conversion rates (by HPLC-UV detection at 350 nm) for Ac-IEPD-AMC (50 μM) in TRIS buffer (see Methods) at 37 °C containing different concentrations of hGzmB. Data presented as mean values±SEM (n=3 independent biological experiments). b) Reaction conversion rates (by HPLC-UV detection at 500 nm) for the tetrapeptide T1 (25 μM) in TRIS buffer at 37 °C containing different concentrations of hGzmB. Data presented as mean values±SEM (3 independent biological experiments).
Source data provided as a Source Data file.
(1 picture or pasted object on this page, not shown here)
Supplementary Table 1. Chemical structures and reactivity of FRET-based tetrapeptides against human GzmB.
Code Structure Linker Quencher HPLC conversion HPLC conversion […]
Supplementary Table 2. Sequences and reactivity of FRET-based hexapeptides against […]
Code Peptide sequence HPLC conversion
H1 Ile-Glu-Pro-Asp-Ala-Gly 75%
H2 Ile-Glu-Pro-Asp-Ser-Gly 80%
H3 Ile-Glu-Pro-Asp-Ser-Leu 80%
H4 Ile-Glu-Pro-Asp-Trp-Leu 82%
H6 Ile-Glu-Pro-Asp-Trp-Arg 40%
H7 Ile-Glu-Pro-Asp-Arg-Leu 60%
H5m Ile-Glu-Phe-Asp-Ala-Leu 70%

[4] = tested on: E0771 cells alone or in co-culture with CD8+ T cells; experiment: Hit validation of AZD5363 by flow cytometry; type: cell-based, mouse
Description: (from 3 independent experiments) in E0771 cells alone (50,000 cells well-1) or in co-culture with CD8+ T cells (200,000 cells well-1) and treatment of AZD5363 (1 μM). concentration: 1,000 U mL-1. Excitation/emission wavelengths: 488 nm/525 nm. b) Representative flow cytometry contour plots (from 3 independent experiments; gating […]
(1 picture or pasted object on this page, not shown here) […]
strategy shown in Supplementary Figure 7) of E0771 cells (50,000 cells well-1) after co- […]
633/670 nm (for AF647-Annexin V). c) Percentages of E0771 cells that were double - […]
in a). Data presented as mean values±SEM (n=3). […]
obtained from ONE-ANOVA tests with multiple c omparisons. Source data in c provided

recombinant human GzmB = target: T2, recombinant human GzmB (Homo sapiens, UniProt P10144); experiment: Kinetic measurements (Michaelis-Menten) with recombinant hGzmB; type: biochemical; settings: Supplementary Table 4, recombinant human GzmB
T2 construct: For active GzmB vs pro-GzmB, p < 0.0001
T2 sequence (P10144 21-247): as above
Description: Fluorescence-based assays with different enzymes were performed in the appropriate buffers. […] In experiments with Ac-IEPD-CHO (50 μM), the inhibitor was preincubated for 1 h with GzmB before the addition of any probe.
Supplementary Table 4. Kinetic values determined for hexapeptides H2-H5 against
Probe Sequence kcat kcat / KM

E0771 cells = experiment: Flow cytometry of E0771 cells in co-culture with CD8+ T cells; type: cell-based, mouse; settings: E0771 alone, staurosporine 1 μM, 1 h
Description: Treatments with staurosporine (1 μM) were for 1 h. […]
mouse CD8+ T cells and mKate-E0771 cells. b) Representative flow cytometry contour plots of E0771 cells in: left) co-cultures of E0771 cells (50,000 cells well-1) and activated […]
cells well-1), right) E0771 alone cells treated with staurosporine (1 µM, 1 h). c) Representative flow cytometry contour plots of CD8+ T cells in: left) co-cultures of E0771 […]
2 h) murine CD8+ T cells (200,000 cells well -1). All cultures in b) and c) were equally […]
with and without preincubation of the GzmB inhibitor Ac -IEPD-CHO. Data presented as […]
633/670 nm (for AF647-Annexin V). Representative plots from independent experiments performed in triplicate. Source data in d provided as a Source Data file.

recombinant mouse GzmB = experiment: Reactivity against recombinant mouse GzmB (fluorescence); type: biochemical; settings: probe 25 μM, 90 min, 37 °C, mouse pro-GzmB 100 nM pre-activated with cathepsin C
Description: and H5m (both at 25 μM) after incubation for 90 min at 37 °C with recombinant mouse
pro-GzmB (100 nM) after pre-activation with mouse cathepsin C (5.5 μg mL-1) for 4 h.
Excitation/emission wavelengths: 450 nm /510 nm. Data presented as mean values±SEM
(3 independent experiments with 3 technical replicates). Source data provided as a […]

human granzyme B (human) = human granzyme B (human) (UniProt P10144)
Chain of human granzyme B (human) (P10144 21-247): as above

[5] = probe 25 μM, hGzmB 20 nM, Data 1
[6] = probe 25 μM, hGzmB 20 nM, Data 2
[7] = probe 25 μM, hGzmB 20 nM, Data 3

CC(=O)O[C@@]12CO[C@@H]1C[C@H](O)[C@@]1(C)C(=O)[C@H](O)C3=C(C)[C@@H](OC(=O)[C@H](O)[C@@H](NC(=O)OC(C)(C)C)c4ccccc4)C[C@@](O)([C@@H](OC(=O)c4ccccc4)[C@H]21)C3(C)C [C11, Docetaxel]
fluorescence signals compared to IL-2 only controls [1]: Increased

CO[C@@]12[C@H](COC(N)=O)C3=C(C(=O)C(C)=C(N)C3=O)N1C[C@@H]1N[C@@H]12 [C18, Mitomycin C]
fluorescence signals compared to IL-2 only controls [1]: Increased

IEPDAG [H1, FRET hexapeptide IEPDAG]
S/N ratios (human GzmB (hGzmB) [2]; [5]): 61
t50 (human GzmB (hGzmB) [2]; [5]): 32 min
S/N ratios (human GzmB (hGzmB) [2]; [6]): 48
t50 (human GzmB (hGzmB) [2]; [6]): 38 min
S/N ratios (human GzmB (hGzmB) [2]; [7]): 55
t50 (human GzmB (hGzmB) [2]; [7]): 36 min
HPLC conversion (20 nM hGzmB, 2 h) (human GzmB (hGzmB) [3]): 75%

IEPDRL [H7, negative control FRET hexapeptide IEPDRL]
S/N ratios (human GzmB (hGzmB) [2]; [6]): 14
S/N ratios (human GzmB (hGzmB) [2]; [7]): 13
HPLC conversion (20 nM hGzmB, 2 h) (human GzmB (hGzmB) [3]): 60%

AZD5363 [C5]
E0771 cells double-stained with probe H5 and AF647-Annexin V ([4]; AZ only (AZD5363 1 μM), Data1): 2%
E0771 cells double-stained with probe H5 and AF647-Annexin V ([4]; AZ only (AZD5363 1 μM), Data2): 2%
E0771 cells double-stained with probe H5 and AF647-Annexin V ([4]; AZ only (AZD5363 1 μM), Data3): 3%
cancer cell death and H5 labeling, drug on its own ([4]; AZD5363 1 μM alone, E0771 cells): did not induce significant cancer cell death
cancer cell death and H5 emission, drug with IL-2 ([4]; AZD5363 1 μM with 100 U mL^−1 IL-2, CD8+ T cell-E0771 co-cultures): caused significant cancer cell death
E0771 cells double-stained with probe H5 and AF647-Annexin V ([4]; IL-2+AZ (AZD5363 1 μM), co-culture with CD8+ T cells, Data1): 33%
E0771 cells double-stained with probe H5 and AF647-Annexin V ([4]; IL-2+AZ (AZD5363 1 μM), co-culture with CD8+ T cells, Data2): 42%
E0771 cells double-stained with probe H5 and AF647-Annexin V ([4]; IL-2+AZ (AZD5363 1 μM), co-culture with CD8+ T cells, Data3): 44%
fluorescence signals compared to IL-2 only controls [1]: Increased
H5 fluorescence staining in the screen ([1]; drug 1 μM + IL-2 100 U mL^−1, 3 h): brightest H5 fluorescence staining

Cn1nnc2c(C(N)=O)ncn2c1=O [C20, Temozolomide]
fluorescence signals compared to IL-2 only controls [1]: Increased

CC(=O)N[C@@H](CSC(=O)[C@]1([C@@H](O)C(C)C)NC(=O)[C@H](C)[C@@H]1O)C(=O)O [C30, Lactacystin]
fluorescence signals compared to IL-2 only controls [1]: Increased

IEPDWL [H4, FRET hexapeptide IEPDWL]
S/N ratios (human GzmB (hGzmB) [2]; [5]): 78
t50 (human GzmB (hGzmB) [2]; [5]): 51 min
S/N ratios (human GzmB (hGzmB) [2]; [6]): 73
t50 (human GzmB (hGzmB) [2]; [6]): 55 min
S/N ratios (human GzmB (hGzmB) [2]; [7]): 75
t50 (human GzmB (hGzmB) [2]; [7]): 56 min
kcat (recombinant human GzmB): 28.2 s⁻¹
HPLC conversion (20 nM hGzmB, 2 h) (human GzmB (hGzmB) [3]): 82%

CN[C@@H]1C[C@H]2O[C@@](C)([C@@H]1OC)n1c3ccccc3c3c4c(c5c6ccccc6n2c5c31)C(=O)NC4 [staurosporine, reference compound]
Annexin V +ve E0771 cells (E0771 cells; replicate 1): 84%
viable E0771 cells (E0771 cells; replicate 1): 13%
Annexin V +ve E0771 cells (E0771 cells; replicate 2): 62%
viable E0771 cells (E0771 cells; replicate 2): 37%
Annexin V +ve E0771 cells (E0771 cells; replicate 3): 71%
viable E0771 cells (E0771 cells; replicate 3): 27%

Ac-IEPD-aldehyde [reference compound]
effect on the fluorescence response of H5 to hGzmB (human GzmB (hGzmB) [2]; Ac-IEPD-CHO 50 μM preincubated 1 h with GzmB): markedly reduced

IEPDWR [H6, negative control FRET hexapeptide IEPDWR]
S/N ratios (human GzmB (hGzmB) [2]; [6]): 39
S/N ratios (human GzmB (hGzmB) [2]; [7]): 40
S/N ratios (fluorescence increase, signal-to-background) (human GzmB (hGzmB) [2]; probe 25 μM, hGzmB 20 nM, mean ± SEM, n = 3): 12
HPLC conversion (20 nM hGzmB, 2 h) (human GzmB (hGzmB) [3]): 40%

C#CC[C@H](c1nc2cc(Cl)ccc2c(=O)n1Nc1ccccc1)N(CCCN)C(=O)c1cccc(Cl)c1F [C12, ARQ621]
fluorescence signals compared to IL-2 only controls [1]: Increased

IEPDSL [H3, FRET hexapeptide IEPDSL]
S/N ratios (human GzmB (hGzmB) [2]; [5]): 68
t50 (human GzmB (hGzmB) [2]; [5]): 15 min
S/N ratios (human GzmB (hGzmB) [2]; [6]): 76
t50 (human GzmB (hGzmB) [2]; [6]): 18 min
S/N ratios (human GzmB (hGzmB) [2]; [7]): 73
t50 (human GzmB (hGzmB) [2]; [7]): 14 min
kcat (recombinant human GzmB): 23.6 s⁻¹
HPLC conversion (20 nM hGzmB, 2 h) (human GzmB (hGzmB) [3]): 80%

C/C(=C\c1csc(C)n1)[C@@H]1C[C@@H]2O[C@]2(C)CCC[C@H](C)[C@H](O)[C@@H](C)C(=O)C(C)(C)[C@@H](O)CC(=O)O1 [C13, Epothilone B]
fluorescence signals compared to IL-2 only controls [1]: Increased

IEFDAL [H5m, hexapeptide analogue containing phenylalanine, IEFDAL]
Fluorescence fold increase (recombinant mouse GzmB; Data 1): 5.6
Fluorescence fold increase (recombinant mouse GzmB; Data 2): 7.1
Fluorescence fold increase (recombinant mouse GzmB; Data 3): 5.2
Fluorescence fold increase (recombinant mouse GzmB; Data 4): 8.2
Fluorescence fold increase (recombinant mouse GzmB; Data 5): 10.5
Fluorescence fold increase (recombinant mouse GzmB; Data 6): 7.7
Fluorescence fold increase (recombinant mouse GzmB; Data 7): 9.6
Fluorescence fold increase (recombinant mouse GzmB; Data 8): 8.2
Fluorescence fold increase (recombinant mouse GzmB; Data 9): 12.2
HPLC conversion (20 nM hGzmB, 2 h) (human GzmB (hGzmB) [3]): 70%

IEPDSG [H2, FRET hexapeptide IEPDSG]
S/N ratios (human GzmB (hGzmB) [2]; [5]): 67
t50 (human GzmB (hGzmB) [2]; [5]): 13 min
S/N ratios (human GzmB (hGzmB) [2]; [6]): 70
t50 (human GzmB (hGzmB) [2]; [6]): 15 min
S/N ratios (human GzmB (hGzmB) [2]; [7]): 69
t50 (human GzmB (hGzmB) [2]; [7]): 14 min
kcat (recombinant human GzmB): 11.2 s⁻¹
HPLC conversion (20 nM hGzmB, 2 h) (human GzmB (hGzmB) [3]): 80%

{BODIPY(FL)}-IEPDAG-{Dabcyl′} [hexapeptide H1]
conversion (cleavage) after 2 h with 20 nM hGzmB (human granzyme B (human)): 75%

{BODIPY(FL)}-IEPDRL-{Dabcyl′} [hexapeptide H7]
conversion (cleavage) by hGzmB (human granzyme B (human)): 60%

{BODIPY(FL)}-IEPDWL-{Dabcyl′} [peptide H4]
conversion (cleavage) by hGzmB (human granzyme B (human)): 82%

{BODIPY(FL)}-IEPDSG-{Dabcyl′} [hexapeptide H2]
conversion (cleavage) after 2 h with 20 nM hGzmB (human granzyme B (human)): 80%

{BODIPY(FL)}-IEPDSL-{Dabcyl′} [peptide H3]
conversion (cleavage) by hGzmB (human granzyme B (human)): 80%
